Test results: PubChem BioAssay AID1963871 (Molecular Pharmacology Branch, DTP, NCI, 2024)

Tested on: KRAS-mutant PDC multicell tumor spheroid viability
Experiment: Anticancer human tumor 521955-158-R2-J5-PDC patient-derived pancreatic carcinoma cell line growth inhibition [KRAS2]
Conditions: for viability, T/C: stronger effect = lower value
From the text: Multicellular complex tumor spheroid response to RAS pathway inhibitors in combination with a targeted agents in patient-derived cell lines with oncogenic KRAS variants from multiple cancer types
A high-throughput screen of multi-cell type tumor spheroids was designed to identify active combinations of targeted small molecules and KRAS pathway inhibitors. Complex spheroids include a stromal component modeled by human endothelial cells (HUVEC) and fibroblasts modeled by human mesenchymal stem cells (MSCs). The concentration ranges selected for each drug and investigational agent were based upon clinically achievable concentrations if the clinical Cmax of the agent was known.
Compounds. The drugs and investigational agents: BI-3406 (NSC825286), BAY-293 (NSC824723), batoprotafib (TNO155; NSC825523), sotorasib (AMG 510; NSC818433), MRTX1257 (NSC819558), elimusertib (BAY 1895344; NSC800525), molibresib (GSK525762; NSC774829), temuterkib (LY3214996; NSC803410), venetoclax (NSC766270), alisertib (NSC759677), olaparib (NSC753686), talazoparib (NSC767125), erdafitinib (NSC781556), ipatasertib (NSC767898), cabozantinib (NSC761068), nintedanib (NSC756659), abemaciclib (NSC768073), docetaxel (NSC628503), trametinib (NSC758246), and sapanisertib (NSC764658) were obtained from the National Cancer Institute (NCI) Developmental Therapeutics Program Chemical Repository. The FDA-approved anticancer drug set is available from the Developmental Therapeutics Program. […] The stock solutions were prepared in dimethyl sulfoxide (DMSO, Sigma-Aldrich, St. Louis, MO, cat. D2650) at 800-fold the tested concentration and stored at -70 degrees C prior to their use. All drugs and investigational agents were tested over a range starting from a high concentration at or near the clinical Cmax and decreasing in half-log increments. If the clinical Cmax for an agent had not been determined, the highest concentration tested was 10 microM.
Cell Culture. All cells were maintained in an incubator at 37 degrees C and 5% CO2 with 95% humidity. The PDC lines were cultured according to standard operating procedures established by the NCI PDMR (https://pdmr.cancer.gov/sops/default.htm). Briefly, all PDCs were thawed and cultured in Matrigel-coated flasks prepared with a working solution of 1X Ham's F-12 nutrient mix, without supplementation (Invitrogen, Waltham, MA, cat. 11765054), 100 U/mL penicillin-streptomycin (Invitrogen, cat. 15140122), and 2.5% Matrigel (Corning Inc., Corning, NY, cat. 354248) for the first three passages. All PDCs were cultured in complete DMEM/F-12 media containing advanced DMEM/F-12 (Invitrogen, cat. 12634028), 4.9% defined fetal bovine serum, heat inactivated (HyClone Laboratories Inc., Logan, UT, cat. SH30070.03HI), 389 ng/mL hydrocortisone (Sigma-Aldrich, cat. H4001), 9.7 ng/mL human EGF recombinant protein (Invitrogen, cat. PHG0313), 23.4 microg/mL adenine (Sigma-Aldrich, cat. A2786), 97.3 U/mL penicillin-streptomycin (Invitrogen, cat. 15140122), 1.9 mM L-glutamine (Invitrogen, cat. 25030081), and 9.7 microM Y-27632 dihydrochloride (Tocris Bioscience, Bristol, United Kingdom, cat. 1254). The PDCs were cultured in complete DMEM/F12 media without 9.7 microM Y-27632 dihydrochloride for at least two passages prior to the screen. The established cell line HOP-62 was cultured in RPMI 1640 medium, HEPES (Invitrogen, cat. 22400105) with 10% defined fetal bovine serum (HyClone Laboratories Inc., cat. SH30070.03) and 2 mM L-glutamine (Invitrogen, cat. 25030081). The pooled donor HUVEC were cultured in endothelial cell growth medium 2 (PromoCell, Heidelberg, Germany, cat. C-22011) and the hMSC were cultured in mesenchymal stem cell growth medium 2 (PromoCell, cat. C-28009). For all experiments, HUVEC and hMSC were used at passages </=5, while the malignant cell lines were used at passages </=15. […]

[1] = curve of first compound, second compound 0.1 µM
[2] = curve of first compound, second compound 0.316 µM
[3] = curve of first compound, second compound 1 µM
[4] = curve of first compound, second compound 3.16 µM
[5] = second compound 0.1 µM, first compound 0.0316 µM
[6] = second compound 0.316 µM, first compound 0.0316 µM
[7] = second compound 1 µM, first compound 0.0316 µM
[8] = second compound 3.16 µM, first compound 0.0316 µM
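Note: viability read after seven days of drug exposure.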

CC(=O)Nc1cccc(-n2c(=O)n(C3CC3)c(=O)c3c(Nc4ccc(I)cc4F)n(C)c(=O)c(C)c32)c1 + COc1cc2nc(C)nc(NC(C)c3cc(N)cc(C(F)(F)F)c3)c2cc1OC1CCOC1
IC50 [1]: 0.26 nM | IC50 [2]: 0.209 nM | IC50 [3]: 0.215 nM | IC50 [4]: 0.26 nM | IC50 (curve of first compound, second compound 10 µM): < 0.1 nM | viability, T/C (second compound 0.1 µM, first compound 0.0001 µM): 68.5% | viability, T/C (second compound 0.1 µM, first compound 0.000316 µM): 48% | viability, T/C (second compound 0.1 µM, first compound 0.001 µM): 26.1% | viability, T/C (second compound 0.1 µM, first compound 0.00316 µM): 26.2% | viability, T/C (second compound 0.1 µM, first compound 0.01 µM): 16.3% | viability, T/C [5]: 12.7% | viability, T/C (second compound 0.316 µM, first compound 0.0001 µM): 58.5% | viability, T/C (second compound 0.316 µM, first compound 0.000316 µM): 46.4% | viability, T/C (second compound 0.316 µM, first compound 0.001 µM): 30.6% | viability, T/C (second compound 0.316 µM, first compound 0.00316 µM): 24.8% | viability, T/C (second compound 0.316 µM, first compound 0.01 µM): 16.7% | viability, T/C [6]: 8.98% | viability, T/C (second compound 1 µM, first compound 0.0001 µM): 65.2% | viability, T/C (second compound 1 µM, first compound 0.000316 µM): 39.3% | viability, T/C (second compound 1 µM, first compound 0.001 µM): 31.4% | viability, T/C (second compound 1 µM, first compound 0.00316 µM): 19.9% | viability, T/C (second compound 1 µM, first compound 0.01 µM): 18.1% | viability, T/C [7]: 7.44% | viability, T/C (second compound 3.16 µM, first compound 0.0001 µM): 63.6% | viability, T/C (second compound 3.16 µM, first compound 0.000316 µM): 46.9% | viability, T/C (second compound 3.16 µM, first compound 0.001 µM): 33.5% | viability, T/C (second compound 3.16 µM, first compound 0.00316 µM): 21.8% | viability, T/C (second compound 3.16 µM, first compound 0.01 µM): 16.8% | viability, T/C [8]: 5.44% | viability, T/C (second compound 10 µM, first compound 0.0001 µM): 33% | viability, T/C (second compound 10 µM, first compound 0.000316 µM): 37.1% | viability, T/C (second compound 10 µM, first compound 0.001 µM): 26.8% | viability, T/C (second compound 10 µM, first compound 0.00316 µM): 11.3% | viability, T/C (second compound 10 µM, first compound 0.01 µM): 3.5% | viability, T/C (second compound 10 µM, first compound 0.0316 µM): 1.26%

O=C(c1cc(Cc2n[nH]c(=O)c3ccccc23)ccc1F)N1CCN(C(=O)C2CC2)CC1 + C=CC(=O)N1CCN(c2nc(OCC3CCCN3C)nc3c2CCN(c2cccc4cccc(C)c24)C3)CC1CC#N
IC50 (curve of first compound, second compound 0.0316 µM): > 10000 nM | IC50 [1]: > 10000 nM | IC50 [2]: > 10000 nM | IC50 [3]: 6450 nM | IC50 [4]: < 31.6 nM | viability, T/C (second compound 0.0316 µM, first compound 0.0316 µM): 104% | viability, T/C (second compound 0.0316 µM, first compound 0.1 µM): 101% | viability, T/C (second compound 0.0316 µM, first compound 0.316 µM): 99.4% | viability, T/C (second compound 0.0316 µM, first compound 1 µM): 85.1% | viability, T/C (second compound 0.0316 µM, first compound 3.16 µM): 80.2% | viability, T/C (second compound 0.0316 µM, first compound 10 µM): 61.3% | viability, T/C [5]: 95.2% | viability, T/C (second compound 0.1 µM, first compound 0.1 µM): 94.9% | viability, T/C (second compound 0.1 µM, first compound 0.316 µM): 93.7% | viability, T/C (second compound 0.1 µM, first compound 1 µM): 92.2% | viability, T/C (second compound 0.1 µM, first compound 3.16 µM): 78.5% | viability, T/C (second compound 0.1 µM, first compound 10 µM): 54% | viability, T/C [6]: 94.2% | viability, T/C (second compound 0.316 µM, first compound 0.1 µM): 92.8% | viability, T/C (second compound 0.316 µM, first compound 0.316 µM): 84.8% | viability, T/C (second compound 0.316 µM, first compound 1 µM): 82.9% | viability, T/C (second compound 0.316 µM, first compound 3.16 µM): 78.3% | viability, T/C (second compound 0.316 µM, first compound 10 µM): 59.1% | viability, T/C [7]: 100% | viability, T/C (second compound 1 µM, first compound 0.1 µM): 101% | viability, T/C (second compound 1 µM, first compound 0.316 µM): 85% | viability, T/C (second compound 1 µM, first compound 1 µM): 73.3% | viability, T/C (second compound 1 µM, first compound 3.16 µM): 70% | viability, T/C (second compound 1 µM, first compound 10 µM): 39.5% | viability, T/C [8]: 4.24% | viability, T/C (second compound 3.16 µM, first compound 0.1 µM): 1.68% | viability, T/C (second compound 3.16 µM, first compound 0.316 µM): 1.74% | viability, T/C (second compound 3.16 µM, first compound 1 µM): 1.67% | viability, T/C (second compound 3.16 µM, first compound 3.16 µM): 2.07% | viability, T/C (second compound 3.16 µM, first compound 10 µM): 0.32%

CCNC(=O)CC1N=C(c2ccc(Cl)cc2)c2cc(OC)ccc2-n2c(C)nnc21 (centres undefined)
viability, T/C (compound 0.0316 µM): 98.9% [middle of 5 runs] | viability, T/C (compound 0.1 µM): 92.1% [middle of 5 runs] | viability, T/C (compound 0.316 µM): 63% [middle of 5 runs] | viability, T/C (compound 1 µM): 45% [middle of 5 runs] | viability, T/C (compound 3.16 µM): 37.6% [middle of 5 runs] | viability, T/C (compound 10 µM): 34.2% [middle of 5 runs] | IC50 (curve of compound): 692 nM [middle of 5 runs]

CCN1CCN(Cc2ccc(Nc3ncc(F)c(-c4cc(F)c5nc(C)n(C(C)C)c5c4)n3)nc2)CC1
viability, T/C (compound 0.00316 µM): 99% [middle of 5 runs] | viability, T/C (compound 0.01 µM): 98.1% [middle of 5 runs] | viability, T/C (compound 0.0316 µM): 87.7% [middle of 5 runs] | viability, T/C (compound 0.1 µM): 90.7% [middle of 5 runs] | viability, T/C (compound 0.316 µM): 99.1% [middle of 5 runs] | viability, T/C (compound 1 µM): 87.5% [middle of 5 runs] | IC50 (curve of compound): > 1000 nM
